Common to all, as to type: cell-based
One experiment deals with hKv1.3 (Homo sapiens, UniProt P22001). Description: cell-based.
Experiment [1] has as its system IL-2 secretion from T cells in human whole blood. To be noted: read-out: WB (IL-2) IC50 (nM, Avg).
The subject of experiment [2] is IFN-g secretion from T cells in human whole blood.
Where [3] appears, read: read-out: WB (IFNg) IC50 (nM, Avg).
The mark [4] stands for this setting: read-out: WB (IFNg) IC5- (nM, Avg).

Read-outs that look alike come from different tables or passages of the source.

The results in this text go back to patent US20120121591A1 (priority 2009, published 2012).

Sequence of hKv1.3 (P22001 whole entry): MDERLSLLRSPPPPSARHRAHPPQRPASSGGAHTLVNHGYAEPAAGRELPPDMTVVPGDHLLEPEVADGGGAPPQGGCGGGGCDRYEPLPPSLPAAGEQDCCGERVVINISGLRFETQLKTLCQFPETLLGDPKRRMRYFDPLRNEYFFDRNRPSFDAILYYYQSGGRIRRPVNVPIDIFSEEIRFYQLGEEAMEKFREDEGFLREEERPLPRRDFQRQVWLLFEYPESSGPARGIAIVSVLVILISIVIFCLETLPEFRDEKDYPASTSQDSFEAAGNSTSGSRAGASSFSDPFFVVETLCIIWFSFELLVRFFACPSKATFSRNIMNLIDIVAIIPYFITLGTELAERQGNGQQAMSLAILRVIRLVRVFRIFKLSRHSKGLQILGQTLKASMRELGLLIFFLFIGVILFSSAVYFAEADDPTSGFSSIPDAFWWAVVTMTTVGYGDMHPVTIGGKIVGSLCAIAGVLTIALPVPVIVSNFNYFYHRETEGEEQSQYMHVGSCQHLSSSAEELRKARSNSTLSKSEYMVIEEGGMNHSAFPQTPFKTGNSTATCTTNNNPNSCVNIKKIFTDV

In the case of `CCCC[C@@H]1NC(=O)[C@H](CO)NC(=O)[C@H](Cc2c[nH]cn2)NC(=O)[C@H](CCC(=O)O)NC(=O)[C@@H]2CSSC[C@@H]3NC(=O)[C@H]([C@@H](C)O)NC(=O)[C@H](CCCNC(=N)N)NC(=O)[C@H](CCCNC(=N)N)NC(=O)[C@H](CSSC[C@H](NC(=O)[C@H](CCCNC(=N)N)NC(=O)[C@H](CO)NC(=O)[C@H](CCCCN)NC(=O)[C@@H]4CCCN4C(=O)[C@H]([C@@H](C)CC)NC(=O)[C@H]([C@@H](C)O)NC(=O)[C@H](CC(=O)O)NC(=O)[C@H]([C@@H](C)CC)NC(=O)[C@@H](NC(=O)[C@H](CO)NC(=O)[C@@H](N)CCCNC(=N)N)CSSC[C@@H](C(N)=O)NC(=O)[C@H]([C@@H](C)O)NC(=O)CNC3=O)C(=O)N[C@@H]([C@@H](C)O)C(=O)N[C@@H](C)C(=O)N[C@@H](C)C(=O)N[C@@H](CCCCN)C(=O)N2)NC(=O)[C@H](Cc2ccccc2)NC(=O)[C@H](CO)NC(=O)[C@H](CC(C)C)NC(=O)[C@H](CCCNC(=N)N)NC(=O)[C@H](Cc2ccc(O)cc2)NC(=O)[C@H](CCCCN)NC1=O`, the IC50 against hKv1.3 (Kv1.3 (IWQ) IC50 (nM, Avg)) was 0.398 nM; in experiment [1], 1.32 nM; in experiment [2] (setting [3]), 2.03 nM.

Turning to `CCCC[C@@H]1NC(=O)[C@H](CO)NC(=O)[C@H](Cc2c[nH]cn2)NC(=O)[C@H](CCCCN)NC(=O)[C@@H]2CSSC[C@@H]3NC(=O)[C@H]([C@@H](C)O)NC(=O)[C@H](CCCNC(=N)N)NC(=O)[C@H](CCCCN)NC(=O)[C@H](CSSC[C@H](NC(=O)[C@H](CCCNC(=N)N)NC(=O)[C@H](CO)NC(=O)[C@H](CCCCN)NC(=O)[C@@H]4CCCN4C(=O)[C@H]([C@@H](C)CC)NC(=O)[C@H]([C@@H](C)O)NC(=O)[C@H](CC(=O)O)NC(=O)[C@H](CCC(=O)O)NC(=O)[C@@H](NC(=O)[C@H](CO)NC(=O)[C@@H](N)CCCNC(=N)N)CSSC[C@@H](C(N)=O)NC(=O)[C@H]([C@@H](C)O)NC(=O)CNC3=O)C(=O)N[C@@H]([C@@H](C)O)C(=O)N[C@@H](C)C(=O)N[C@@H](Cc3ccccc3)C(=O)N[C@@H](CCCCN)C(=O)N2)NC(=O)[C@H](Cc2ccccc2)NC(=O)[C@H](Cc2cccc3ccccc23)NC(=O)[C@H](CC(C)C)NC(=O)[C@H](CCCNC(=N)N)NC(=O)[C@H](Cc2ccc(O)cc2)NC(=O)[C@H](CCCCN)NC1=O`, the IC50 on hKv1.3 (Kv1.3 (IWQ) IC50 (nM, Avg)) was 1.66 nM; in experiment [1], 10.7 nM; in experiment [2] (setting [3]), 17.4 nM.

As to `CCCC[C@@H]1NC(=O)[C@H](CO)NC(=O)[C@H](Cc2c[nH]cn2)NC(=O)[C@H](CCCNC(=N)N)NC(=O)[C@@H]2CSSC[C@@H]3NC(=O)[C@H]([C@@H](C)O)NC(=O)[C@H](CCCNC(=N)N)NC(=O)[C@H](CCCCN)NC(=O)[C@H](CSSC[C@H](NC(=O)[C@H](CCCNC(=N)N)NC(=O)[C@H](CO)NC(=O)[C@H](CCCCN)NC(=O)[C@@H]4CCCN4C(=O)[C@H]([C@@H](C)CC)NC(=O)[C@H]([C@@H](C)O)NC(=O)[C@H](CC(=O)O)NC(=O)[C@H](CCC(=O)O)NC(=O)[C@@H](NC(=O)[C@H](CO)NC(=O)[C@@H](N)CCCNC(=N)N)CSSC[C@@H](C(N)=O)NC(=O)[C@H]([C@@H](C)O)NC(=O)CNC3=O)C(=O)N[C@@H]([C@@H](C)O)C(=O)N[C@@H](C)C(=O)N[C@@H](Cc3ccccc3)C(=O)N[C@@H](CCCCN)C(=O)N2)NC(=O)[C@H](Cc2ccccc2)NC(=O)[C@H](CO)NC(=O)[C@H](CC(C)C)NC(=O)[C@H](CCCNC(=N)N)NC(=O)[C@H](Cc2ccc(O)cc2)NC(=O)[C@H](CCCCN)NC1=O`, the IC50 is 0.269 nM against hKv1.3 (Kv1.3 (IWQ) IC50 (nM, Avg)); 1.96 nM in experiment [1]; 1.33 nM in experiment [2] (setting [3]).

Consider 30kDaPEG-ShK, for which the IC50 with hKv1.3 (read-out: Kv1.3 (IWQ) IC50 (nM, Avg)) is 1.93 nM; in experiment [1], 0.372 nM; in experiment [2] (setting [3]) it was 2.42 nM.

For the molecule `CC[C@H](C)[C@@H]1NC(=O)[C@@H](NC(=O)[C@H](CO)NC(=O)[C@@H](N)CCCNC(=N)N)CSSC[C@@H](C(=O)O)NC(=O)[C@H]([C@@H](C)O)NC(=O)CNC(=O)[C@@H]2CSSC[C@@H]3NC(=O)[C@H](CCC(N)=O)NC(=O)[C@H](Cc4ccccc4)NC(=O)[C@H](C)NC(=O)[C@H]([C@@H](C)O)NC(=O)[C@H](CSSC[C@H](NC(=O)[C@H](Cc4ccccc4)NC(=O)[C@H](CO)NC(=O)[C@H](CC(C)C)NC(=O)[C@H](CCCNC(=N)N)NC(=O)[C@H](Cc4ccc(O)cc4)NC(=O)[C@H](CCCCN)NC(=O)[C@H](CCSC)NC(=O)[C@H](CO)NC(=O)[C@H](Cc4c[nH]cn4)NC(=O)[C@H](CCCCN)NC3=O)C(=O)N[C@@H](CCCNC(=N)N)C(=O)N[C@@H](CCCCN)C(=O)N[C@@H]([C@@H](C)O)C(=O)N2)NC(=O)[C@H](CCCNC(=N)N)NC(=O)[C@H](CO)NC(=O)[C@H](CCCCN)NC(=O)[C@H](CCC(=O)O)NC(=O)[C@H]([C@@H](C)CC)NC(=O)[C@H]([C@@H](C)O)NC(=O)[C@H](CC(=O)O)NC1=O` [[Glu8]ShK], the IC50 against hKv1.3 (Kv1.3 (IWQ) IC50 (nM, Avg)) amounted to 0.097 nM; in experiment [2] (setting [4]), 0.238 nM.

Consider `CC[C@H](C)[C@@H]1NC(=O)[C@@H](NC(=O)[C@H](CO)NC(=O)[C@@H](N)CCCNC(=N)N)CSSC[C@@H](C(=O)O)NC(=O)[C@H](CCC(=O)O)NC(=O)CNC(=O)[C@@H]2CSSC[C@@H]3NC(=O)[C@H](CCC(N)=O)NC(=O)[C@H](Cc4ccccc4)NC(=O)[C@H](C)NC(=O)[C@H]([C@@H](C)O)NC(=O)[C@H](CSSC[C@H](NC(=O)[C@H](Cc4ccccc4)NC(=O)[C@H](CO)NC(=O)[C@H](CC(C)C)NC(=O)[C@H](CCCNC(=N)N)NC(=O)[C@H](Cc4ccc(O)cc4)NC(=O)[C@H](CCCCN)NC(=O)[C@H](CCSC)NC(=O)[C@H](CO)NC(=O)[C@H](Cc4c[nH]cn4)NC(=O)[C@H](CCCCN)NC3=O)C(=O)N[C@@H](CCCNC(=N)N)C(=O)N[C@@H](CCCCN)C(=O)N[C@@H]([C@@H](C)O)C(=O)N2)NC(=O)[C@H](CCCNC(=N)N)NC(=O)[C@H](CO)NC(=O)[C@H](CCCCN)NC(=O)[C@@H]2CCCN2C(=O)[C@H]([C@@H](C)CC)NC(=O)[C@H]([C@@H](C)O)NC(=O)[C@H](CC(=O)O)NC1=O` [[Glu34]ShK], for which the IC50 against hKv1.3 (Kv1.3 (IWQ) IC50 (nM, Avg)) was 0.067 nM; in experiment [2] (setting [4]), 0.123 nM.

As to `CC[C@H](C)[C@@H]1NC(=O)[C@@H](NC(=O)[C@H](CO)NC(=O)[C@@H](N)CCCNC(=N)N)CSSC[C@@H](C(=O)O)NC(=O)[C@H]([C@@H](C)O)NC(=O)CNC(=O)[C@@H]2CSSC[C@@H]3NC(=O)[C@H](CCC(N)=O)NC(=O)[C@H](Cc4ccccc4)NC(=O)[C@H](C)NC(=O)[C@H]([C@@H](C)O)NC(=O)[C@H](CSSC[C@H](NC(=O)[C@H](Cc4ccccc4)NC(=O)[C@H](CO)NC(=O)[C@H](CC(C)C)NC(=O)[C@H](CCCNC(=N)N)NC(=O)[C@H](Cc4ccc(O)cc4)NC(=O)[C@H](CCCCN)NC(=O)[C@H](CCSC)NC(=O)[C@H](CO)NC(=O)[C@H](Cc4cnc[nH]4)NC(=O)[C@H](CCCCN)NC3=O)C(=O)N[C@@H](CCCNC(=N)N)C(=O)N[C@@H](CCCCN)C(=O)N[C@@H]([C@@H](C)O)C(=O)N2)NC(=O)[C@H](CCCNC(=N)N)NC(=O)[C@H](CO)NC(=O)[C@H](CCCCN)NC(=O)[C@@H]2CCCN2C(=O)[C@H]([C@@H](C)CC)NC(=O)[C@H]([C@@H](C)O)NC(=O)[C@H](CCCCN)NC1=O` [[Lys5]ShK], the IC50 against hKv1.3 (Kv1.3 (IWQ) IC50 (nM, Avg)) came out at 3.3 nM.

As to `CC[C@H](C)[C@@H]1NC(=O)[C@@H](NC(=O)[C@H](CO)NC(=O)[C@@H](N)CCCNC(=N)N)CSSC[C@@H](C(=O)O)NC(=O)[C@H]([C@@H](C)O)NC(=O)CNC(=O)[C@@H]2CSSC[C@@H]3NC(=O)[C@H](CCC(N)=O)NC(=O)[C@H](Cc4ccccc4)NC(=O)[C@H](C)NC(=O)[C@H]([C@@H](C)O)NC(=O)[C@H](CSSC[C@H](NC(=O)[C@H](Cc4ccccc4)NC(=O)[C@H](CO)NC(=O)[C@H](CC(C)C)NC(=O)[C@H](CCCNC(=N)N)NC(=O)[C@H](Cc4ccc(O)cc4)NC(=O)[C@H](CCCCN)NC(=O)[C@H](CCSC)NC(=O)[C@H](CO)NC(=O)[C@H](Cc4c[nH]cn4)NC(=O)[C@H](CCCCN)NC3=O)C(=O)N[C@@H](CCCNC(=N)N)C(=O)N[C@@H](CCCCN)C(=O)N[C@@H]([C@@H](C)O)C(=O)N2)NC(=O)[C@H](CCCNC(=N)N)NC(=O)[C@H](CO)NC(=O)[C@H](CCCCN)NC(=O)[C@@H]2CCCN2C(=O)[C@H]([C@@H](C)CC)NC(=O)[C@H](CCCCN)NC(=O)[C@H](CC(=O)O)NC1=O` [[Lys6]ShK], the IC50 against hKv1.3 (Kv1.3 (IWQ) IC50 (nM, Avg)) came out at 0.085 nM; in experiment [2] (setting [3]), 0.21 nM.

Turning to `CC[C@H](C)[C@@H]1NC(=O)[C@@H](NC(=O)[C@H](CO)NC(=O)[C@@H](N)CCCNC(=N)N)CSSC[C@@H](C(N)=O)NC(=O)[C@H]([C@@H](C)O)NC(=O)CNC(=O)[C@@H]2CSSC[C@@H]3NC(=O)[C@H](CCCCN)NC(=O)[C@H](Cc4ccccc4)NC(=O)[C@H](C)NC(=O)[C@H]([C@@H](C)O)NC(=O)[C@H](CSSC[C@H](NC(=O)[C@H](Cc4ccccc4)NC(=O)[C@H](CO)NC(=O)[C@H](CC(C)C)NC(=O)[C@H](CCCNC(=N)N)NC(=O)[C@H](Cc4ccc(O)cc4)NC(=O)[C@H](CCCCN)NC(=O)[C@H](CC(N)=O)NC(=O)[C@H](CO)NC(=O)[C@H](Cc4c[nH]cn4)NC(=O)[C@H](CCCCN)NC3=O)C(=O)N[C@@H](CCCNC(=N)N)C(=O)N[C@@H](CCCCN)C(=O)N[C@@H]([C@@H](C)O)C(=O)N2)NC(=O)[C@H](CCCNC(=N)N)NC(=O)[C@H](CO)NC(=O)[C@H](CCCCN)NC(=O)[C@@H]2CCCN2C(=O)[C@H]([C@@H](C)CC)NC(=O)[C@H]([C@@H](C)O)NC(=O)[C@H](CC(=O)O)NC1=O` [[Lys16, Asn21]ShK-amide], the IC50 worked out at 0.167 nM at hKv1.3 (Kv1.3 (IWQ) IC50 (nM, Avg)) and 3.24 nM in experiment [1].
